Test results as given in US11370798B2 (Vertex Pharmaceuticals Incorporated, priority 2012, dated 2022).

System: HCT116 colorectal cancer cells
Assay: Cisplatin sensitization assay (96 h cell viability MTS);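 also: Test-compound concentration that lowers the Cisplatin IC50 by a set fold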
Assay type: cell-based
Conditions: compound and Cisplatin added simultaneously, Cisplatin sensitization value
Procedure, shortened: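 Compound and cisplatin added together as a full matrix of 2-fold serial dilutions from a top final concentration of 10 μM; cells incubated 96 h at 37° C, 5% CO2. Viability then read by MTS after 1 h further incubation; sensitization value reported in μM bins.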

| Compound | Cisplatin Sensitization Assay |
| --- | --- |
| CN1CCN(c2c(NC(=O)c3c(N)nn4cc(F)cnc34)cncc2C(F)F)CC1 [I-N-111, 2-amino-N-(5-(difluoromethyl)-4-(4-methylpiperazin-1-yl)pyridin-3-yl)-6-fluoropyrazolo[1,5-a]pyrimidine-3-carboxamide] | ++ (Cisplatin sensitization value>0.02 μM but <0.2 μM) |
| Nc1nn2cc(F)cnc2c1C(=O)Nc1cnccc1N1CCN(C2COC2)C2CC21 (centres unmarked) [I-N-112, 2-amino-6-fluoro-N-(4-(5-(oxetan-3-yl)-2,5-diazabicyclo[4.1.0]heptan-2-yl)pyridin-3-yl)pyrazolo[1,5-a]pyrimidine-3-carboxamide] | + (Cisplatin sensitization value>0.2 μM but <5 μM) |
| CN1CCN(c2c(C#N)cncc2NC(=O)c2c(N)nn3cc(F)cnc23)CC1 [I-N-113, 2-amino-N-(5-cyano-4-(4-methylpiperazin-1-yl)pyridin-3-yl)-6-fluoropyrazolo[1,5-a]pyrimidine-3-carboxamide] | + (Cisplatin sensitization value>0.2 μM but <5 μM) |
| Nc1nn2cc(F)cnc2c1C(=O)Nc1cnccc1N1CCN2CCOC[C@@H]2C1 [I-N-115, (S)-2-amino-6-fluoro-N-(4-(hexahydropyrazino[2,1-c][1,4]oxazin-8(1H)-yl)pyridin-3-yl)pyrazolo[1,5-a]pyrimidine-3-carboxamide] | +++ (Cisplatin sensitization value of <0.02 μM) |
| Nc1nn2cc(F)cnc2c1C(=O)Nc1cnccc1N1CCN2CCOC[C@H]2C1 [I-N-116, (R)-2-amino-6-fluoro-N-(4-(hexahydropyrazino[2,1-c][1,4]oxazin-8(1H)-yl)pyridin-3-yl)pyrazolo[1,5-a]pyrimidine-3-carboxamide] | ++ (Cisplatin sensitization value>0.02 μM but <0.2 μM) |
| Nc1nn2cc(Cl)cnc2c1C(=O)Nc1cncc(F)c1N1CCN(C2COC2)CC1 [I-N-117, 2-amino-6-chloro-N-(5-fluoro-4-(4-(oxetan-3-yl)piperazin-1-yl)pyridin-3-yl)pyrazolo[1,5-a]pyrimidine-3-carboxamide] | +++ (Cisplatin sensitization value of <0.02 μM) |
| Nc1nn2cc(F)cnc2c1C(=O)Nc1cncc(F)c1N1CCNCC1 [I-N-118, 2-amino-6-fluoro-N-(5-fluoro-4-(piperazin-1-yl)pyridin-3-yl)pyrazolo[1,5-a]pyrimidine-3-carboxamide] | +++ (Cisplatin sensitization value of <0.02 μM) |
| Nc1nn2cc(F)cnc2c1C(=O)Nc1cncc(C2CC2)c1N1CCN([C@@H]2CCOC2)CC1 [I-N-119, (R)-2-amino-N-(5-cyclopropyl-4-(4-(tetrahydrofuran-3-yl)piperazin-1-yl)pyridin-3-yl)-6-fluoropyrazolo[1,5-a]pyrimidine-3-carboxamide] | ++ (Cisplatin sensitization value>0.02 μM but <0.2 μM) |
| Nc1nn2cc(F)cnc2c1C(=O)Nc1cncc(C2CC2)c1N1CCN([C@H]2CCOC2)CC1 [I-N-120, (S)-2-amino-N-(5-cyclopropyl-4-(4-(tetrahydrofuran-3-yl)piperazin-1-yl)pyridin-3-yl)-6-fluoropyrazolo[1,5-a]pyrimidine-3-carboxamide] | +++ (Cisplatin sensitization value of <0.02 μM) |
| Nc1nn2cc(F)cnc2c1C(=O)Nc1cncc(F)c1N1CCN(C2CCOCC2)CC1 [I-N-121, 2-amino-6-fluoro-N-(5-fluoro-4-(4-(tetrahydro-2H-pyran-4-yl)piperazin-1-yl)pyridin-3-yl)pyrazolo[1,5-a]pyrimidine-3-carboxamide] | +++ (Cisplatin sensitization value of <0.02 μM) |
| Nc1nn2cc(F)cnc2c1C(=O)Nc1cncc(F)c1N1CCN(C2CCOC2)CC1 (centres unmarked) [I-N-122, 2-amino-6-fluoro-N-(5-fluoro-4-(4-(tetrahydrofuran-3-yl)piperazin-1-yl)pyridin-3-yl)pyrazolo[1,5-a]pyrimidine-3-carboxamide] | ++ (Cisplatin sensitization value>0.02 μM but <0.2 μM) |
